{
  "source": "patent US10287301B2",
  "about": "(Achillion Pharmaceuticals, Inc., priority 2015, dated 2019)",
  "target": "Human Factor D (Homo sapiens (Human), UniProt P00746)",
  "sequence (P00746 26-253)": "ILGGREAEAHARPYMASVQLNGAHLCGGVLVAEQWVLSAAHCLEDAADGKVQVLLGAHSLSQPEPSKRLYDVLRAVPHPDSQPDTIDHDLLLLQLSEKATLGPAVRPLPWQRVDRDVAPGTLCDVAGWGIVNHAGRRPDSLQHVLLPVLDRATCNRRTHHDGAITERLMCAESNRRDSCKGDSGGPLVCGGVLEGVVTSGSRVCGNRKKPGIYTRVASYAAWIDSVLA",
  "assay": "Human Factor D Assay",
  "assay_type": "biochemical",
  "summary_of_the_method": "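Factor D (from human serum) 80 nM final + cpd, 5 min RT, 50 mM Tris/1M NaCl pH 7.5; add Z-L-Lys-SBzl 100 μM and DTNB 100 μM final. IC50 by nonlinear fit of rates vs [cpd].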",
  "key": {"[1]": {"settings": "Table 3, Human Factor D 80 nM, substrate Z-L-Lys-SBzl, read-out: IC50 (Stars)"}, "[2]": {"settings": "Human Factor D, Table 3, read-out: IC50"}, "[3]": {"settings": "Human Factor D 80 nM, substrate Z-L-Lys-SBzl, read-out: IC50"}, "[4]": {"settings": "Human Factor D assay of Example 8, Table 2, read-out: IC50"}},
  "note": "Read-outs that look alike come from different tables or passages of the source.",
  "data": [
    {"smiles": "CC(=O)c1nn(CC(=O)N2C[C@H](F)C[C@H]2C(=O)Nc2nc(Br)c(F)cc2C)c2ccc(-c3cnc(C)nc3)cc12", "note": "[Compound 520, (2S,4R)-1-(2-(3-Acetyl-5-(2-methylpyrimidin-5-yl)-1H-indazol-1-yl)acetyl)-N-(6-bromo-5-fluoro-3-methylpyridin-2-yl)-4-fluoropyrrolidine-2-carboxamide]", "values": [
      {"measurement": "IC50", "setting": "[1]", "value": "< 1000", "unit": "nM"}
    ]},
    {"smiles": "CC(=O)n1cc(CC(=O)N2C[C@H](F)C[C@H]2C(=O)Nc2cccc(Br)n2)c2ccc(-c3cnc(C)nc3)cc21", "note": "[Compound 711, (2S,4R)-1-(2-(1-Acetyl-6-(2-methylpyrimidin-5-yl)-1H-indol-3-yl)acetyl)-N-(6-bromopyridin-2-yl)-4-fluoropyrrolidine-2-carboxamide]", "values": [
      {"measurement": "IC50", "setting": "[2]", "value": "< 1000", "unit": "nM"}
    ]},
    {"smiles": "CC(=O)c1cn(CC(=O)N2C[C@H](F)C[C@H]2C(=O)N[C@H]2CCCC[C@@H]2OCc2ccccc2)c2ccc(-c3ccnnc3)cc12", "note": "[Compound 74, (2S,4R)-1-(2-(3-acetyl-5-(pyridazin-4-yl)-1H-indol-1-yl)acetyl)-N-((1S,2S)-2-(benzyloxy)cyclohexyl)-4-fluoropyrrolidine-2-carboxamide]", "values": [
      {"measurement": "IC50", "setting": "[3]", "value": "> 10000", "unit": "nM"}
    ]},
    {"smiles": "NC(=O)c1nn(CC(=O)N2C[C@H](F)C[C@H]2C(=O)NCc2cccnc2)c2ccc(-c3ccnnc3)cc12", "note": "[Compound 39, 1-(2-((2S,4R)-4-fluoro-2-(pyridin-3-ylmethylcarbamoyl)pyrrolidin-1-yl)-2-oxoethyl)-5-(pyridazin-4-yl)-1H-indazole-3-carboxamide]", "values": [
      {"measurement": "IC50", "value": "1000 to 10000", "unit": "nM"}
    ]},
    {"smiles": "COc1ncc(-c2ccc3c(c2)c(C(C)=O)nn3CC(=O)N2C[C@H]3C[C@H]3[C@H]2C(=O)Nc2nc(Br)ccc2C)cn1", "note": "[Compound 634, (1R,2S,5S)-3-(2-(3-Acetyl-5-(2-methoxypyrimidin-5-yl)-1H-indazol-1-yl)acetyl)-N-(6-bromo-3-methylpyridin-2-yl)-3-azabicyclo[3.1.0]hexane-2-carboxamide]", "values": [
      {"measurement": "IC50", "setting": "[2]", "value": "< 1000", "unit": "nM"}
    ]},
    {"smiles": "CC(=O)c1cn(CC(=O)N2C[C@H](F)C[C@H]2C(=O)Nc2cccc(-c3ccccc3Cl)c2F)c2ccc(-c3cnc(C(N)=O)nc3)cc12", "note": "[Compound 209, 5-(3-acetyl-1-(2-((2S,4R)-2-(2′-chloro-2-fluorobiphenyl-3-ylcarbamoyl)-4-fluoropyrrolidin-1-yl)-2-oxoethyl)-1H-indol-5-yl)pyrimidine-2-carboxamide]", "values": [
      {"measurement": "IC50", "setting": "[4]", "value": "< 1000", "unit": "nM"}
    ]},
    {"smiles": "Cc1cccc(NC(=O)[C@@H]2[C@H]3CC[C@H](C3)N2C(=O)Cn2cc(C(N)=O)c3cc(-c4cnc(C)nc4)ccc32)n1", "note": "[Compound 473, 1-(2-((1R,3S,4S)-3-(6-Methylpyridin-2-ylcarbamoyl)-2-azabicyclo[2.2.1]heptan-2-yl)-2-oxoethyl)-5-(2-methylpyrimidin-5-yl)-1H-indole-3-carboxamide]", "values": [
      {"measurement": "IC50", "setting": "[1]", "value": "> 10000", "unit": "nM"}
    ]},
    {"smiles": "COCCNc1ncc(-c2ccc3c(c2)c(C(C)=O)cn3CC(=O)N2C[C@H](F)C[C@H]2C(=O)Nc2cccc(-c3ccccc3Cl)c2F)cn1", "note": "[Compound 187, (2S,4R)-1-(2-(3-acetyl-5-(2-(2-methoxyethylamino)pyrimidin-5-yl)-1H-indol-1-yl)acetyl)-N-(2′-chloro-2-fluorobiphenyl-3-yl)-4-fluoropyrrolidine-2-carboxamide]", "values": [
      {"measurement": "IC50", "setting": "[3]", "value": "< 1000", "unit": "nM"}
    ]},
    {"smiles": "CO[C@@H]1CO[C@H]2[C@@H]1OC[C@H]2Oc1ncc(-c2ccc3c(c2)c(C(C)=O)cn3CC(=O)N2C[C@H](F)C[C@H]2C(=O)Nc2cccc(-c3ccccc3Cl)c2F)cn1", "note": "[Compound 335]", "values": [
      {"measurement": "IC50", "setting": "[1]", "value": "< 1000", "unit": "nM"}
    ]},
    {"smiles": "COc1ncc(-c2ccc3c(c2)c(C(C)=O)nn3CC(=O)N2[C@@H]3C[C@@H]3C[C@H]2C(=O)Nc2nc(Br)ccc2C)cn1", "note": "[Compound 445, (1R,3S,5R)-2-(2-(3-Acetyl-5-(2-methoxypyrimidin-5-yl)-1H-indazol-1-yl)acetyl)-N-(6-bromo-3-methylpyridin-2-yl)-2-azabicyclo[3.1.0]hexane-3-carboxamide]", "values": [
      {"measurement": "IC50", "setting": "[1]", "value": "< 1000", "unit": "nM"}
    ]},
    {"smiles": "Cc1ncc(-c2ccc3c(c2)c(C(C)F)nn3CC(=O)N2C[C@H](F)C[C@H]2C(=O)Nc2cccc(Br)n2)cn1", "note": "(stereo partly drawn) [Compound 456, (2S,4R)—N-(6-Bromopyridin-2-yl)-4-fluoro-1-(2-(3-(1-fluoroethyl)-5-(2-methylpyrimidin-5-yl)-1H-indazol-1-yl)acetyl)pyrrolidine-2-carboxamide]", "values": [
      {"measurement": "IC50", "setting": "[1]", "value": "< 1000", "unit": "nM"}
    ]},
    {"smiles": "CC(=O)c1nn(CC(=O)N2C[C@H](F)C[C@H]2C(=O)NC/C(F)=C(/C)c2cccc(Cl)c2)c2ccc(-c3cnc(C)nc3)cc12", "note": "[Compound 503, (2S,4R)-1-(2-(3-acetyl-5-(2-methylpyrimidin-5-yl)-1H-indazol-1-yl)acetyl)-N-((E)-3-(3-chlorophenyl)-2-fluorobut-2-en-1-yl)-4-fluoropyrrolidine-2-carboxamide]", "values": [
      {"measurement": "IC50", "setting": "[1]", "value": "< 1000", "unit": "nM"}
    ]},
    {"smiles": "COc1ncc(-c2ccc3c(c2)c(C(C)=O)nn3CC(=O)N2C[C@H](F)C[C@H]2C(=O)Nc2cccc(Br)n2)cn1", "note": "[Compound 384, (2S,4R)-1-(2-(3-Acetyl-5-(2-methoxypyrimidin-5-yl)-1H-indazol-1-yl)acetyl)-N-(6-bromopyridin-2-yl)-4-fluoropyrrolidine-2-carboxamide]", "values": [
      {"measurement": "IC50", "setting": "[1]", "value": "< 1000", "unit": "nM"}
    ]},
    {"smiles": "CC(=O)c1nn(CC(=O)N2C[C@H](F)C[C@H]2C(=O)Nc2ncc(F)cc2Br)c2ccc(-c3cnc(C)nc3)cc12", "note": "[Compound 408, (2S,4R)-1-(2-(3-Acetyl-5-(2-methylpyrimidin-5-yl)-1H-indazol-1-yl)acetyl)-N-(3-bromo-5-fluoropyridin-2-yl)-4-fluoropyrrolidine-2-carboxamide]", "values": [
      {"measurement": "IC50", "setting": "[1]", "value": "< 1000", "unit": "nM"}
    ]},
    {"smiles": "COCCNc1ncc(-c2ccc3c(c2)c(C(C)=O)nn3CC(=O)N2C[C@H](F)C[C@H]2C(=O)Nc2cccc(Br)n2)cn1", "note": "[Compound 269, (2S,4R)-1-(2-(3-acetyl-5-(2-(2-methoxyethylamino)pyrimidin-5-yl)-1H-indazol-1-yl)acetyl)-N-(6-bromopyridin-2-yl)-4-fluoropyrrolidine-2-carboxamide]", "values": [
      {"measurement": "IC50", "setting": "[4]", "value": "< 1000", "unit": "nM"}
    ]},
    {"smiles": "CC(=O)c1nn(CC(=O)N2C[C@H](F)C[C@H]2C(=O)Nc2cccc(Br)n2)c2cc(CN(C)C)c(-c3cnc(C)nc3)cc12", "note": "[Compound 387, (2S,4R)-1-(2-(3-Acetyl-6-((dimethylamino)methyl)-5-(2-methylpyrimidin-5-yl)-1H-indazol-1-yl)acetyl)-N-(6-bromopyridin-2-yl)-4-fluoropyrrolidine-2-carboxamide]", "values": [
      {"measurement": "IC50", "setting": "[1]", "value": "< 1000", "unit": "nM"}
    ]},
    {"smiles": "CC(=O)c1cn(CC(=O)N2C[C@H](F)C[C@H]2C(=O)Nc2cccc(Br)n2)c2ccc(-c3cnc(C)nc3)cc12", "note": "[Compound 84, (2S,4R)-1-(2-(3-acetyl-5-(2-methylpyrimidin-5-yl)-1H-indol-1-yl)acetyl)-N-(6-bromopyridin-2-yl)-4-fluoropyrrolidine-2-carboxamide]", "values": [
      {"measurement": "IC50", "setting": "[3]", "value": "< 1000", "unit": "nM"}
    ]},
    {"smiles": "CC(=O)c1nn(CC(=O)N2C[C@H](F)C[C@H]2C(=O)Nc2cccc(Br)n2)c2ccc(-c3ccc4ncnn4c3)cc12", "note": "[Compound 248, (2S,4R)-1-(2-(5-([1,2,4]triazolo[1,5-a]pyridin-6-yl)-3-acetyl-1H-indazol-1-yl)acetyl)-N-(6-bromopyridin-2-yl)-4-fluoropyrrolidine-2-carboxamide]", "values": [
      {"measurement": "IC50", "setting": "[4]", "value": "< 1000", "unit": "nM"}
    ]},
    {"smiles": "CC(=O)c1cn(CCN2C[C@H](F)C[C@H]2C(=O)Nc2cccc(OC(F)(F)F)c2F)c2ccc(-c3cnc(C)nc3)cc12", "note": "[Compound 594, (2S,4R)-1-(2-(3-Acetyl-5-(2-methylpyrimidin-5-yl)-1H-indol-1-yl)ethyl)-4-fluoro-N-(2-fluoro-3-(trifluoromethoxy)phenyl)pyrrolidine-2-carboxamide]", "values": [
      {"measurement": "IC50", "setting": "[2]", "value": "> 10000", "unit": "nM"}
    ]},
    {"smiles": "CC(=O)c1nn(CC(=O)N2C[C@H](F)C[C@H]2C(=O)Nc2cccc(Br)n2)c2ccc(-c3cnc(N)nc3)cc12", "note": "[Compound 260, (2S,4R)-1-(2-(3-acetyl-5-(2-aminopyrimidin-5-yl)-1H-indazol-1-yl)acetyl)-N-(6-bromopyridin-2-yl)-4-fluoropyrrolidine-2-carboxamide]", "values": [
      {"measurement": "IC50", "setting": "[4]", "value": "< 1000", "unit": "nM"}
    ]},
    {"smiles": "COc1cc(C)cc2c1OCCC2NC(=O)[C@@H]1C[C@@H](F)CN1C(=O)Cn1nc(C(N)=O)c2cc(-c3ccnnc3)ccc21", "note": "(stereo partly drawn) [Compound 122, 1-(2-((2S,4R)-4-fluoro-2-(8-methoxy-6-methylchroman-4-ylcarbamoyl)pyrrolidin-1-yl)-2-oxoethyl)-5-(pyridazin-4-yl)-1H-indazole-3-carboxamide]", "values": [
      {"measurement": "IC50", "setting": "[3]", "value": "> 10000", "unit": "nM"}
    ]},
    {"smiles": "CC(=O)c1nn(CC(=O)N2C[C@H](F)C[C@H]2C(=O)Nc2cccc(OC(F)(F)F)c2F)c2ccc(-c3cnc4ccnn4c3)cc12", "note": "[Compound 235, (2S,4R)-1-(2-(3-acetyl-5-(pyrazolo[1,5-a]pyrimidin-6-yl)-1H-indazol-1-yl)acetyl)-4-fluoro-N-(2-fluoro-3-(trifluoromethoxy)phenyl)pyrrolidine-2-carboxamide]", "values": [
      {"measurement": "IC50", "setting": "[4]", "value": "< 1000", "unit": "nM"}
    ]},
    {"smiles": "CC(=O)c1nn(CC(=O)N2C[C@H](F)C[C@H]2C(=O)Nc2nc(Br)ccc2C2CC2)c2ccc(-c3cnc(C)nc3)cc12", "note": "[Compound 538, (2S,4R)-1-(2-(3-Acetyl-5-(2-methylpyrimidin-5-yl)-1H-indazol-1-yl)acetyl)-N-(6-bromo-3-cyclopropylpyridin-2-yl)-4-fluoropyrrolidine-2-carboxamide]", "values": [
      {"measurement": "IC50", "setting": "[1]", "value": "< 1000", "unit": "nM"}
    ]},
    {"smiles": "CC(=O)c1cn(CC(=O)N2[C@@H]3C[C@@H]3C[C@H]2C(=O)Nc2cccc(Br)n2)c2ccc(-c3cncnc3)cc12", "note": "[Compound 17, (1R,3S,5R)-2-(2-(3-acetyl-5-(pyrimidin-5-yl)-1H-indol-1-yl)acetyl)-N-(6-bromopyridin-2-yl)2-azabicyclo[3.1.0] hexane-3-carboxamide]", "values": [
      {"measurement": "IC50", "setting": "[3]", "value": "< 1000", "unit": "nM"}
    ]},
    {"smiles": "CC(=O)c1nn(CC(=O)N2C[C@H](F)C[C@H]2C(=O)NC[C@H]2CCN(C)C2)c2ccc(-c3cnc(C)nc3)cc12", "note": "[Compound 569, (2S,4R)-1-(2-(3-acetyl-5-(2-methylpyrimidin-5-yl)-1H-indazol-1-yl)acetyl)-4-fluoro-N—(((R)-1-methylpyrrolidin-3-yl)methyl)pyrrolidine-2-carboxamide]", "values": [
      {"measurement": "IC50", "setting": "[2]", "value": "> 10000", "unit": "nM"}
    ]},
    {"smiles": "CC(=O)c1nn(CC(=O)N2C[C@H](F)C[C@H]2C(=O)Nc2cccc(Br)n2)c2ccc(-c3cnc(CC(=O)O)nc3)cc12", "note": "[Compound 533, 2-(5-(3-Acetyl-1-(2-((2S,4R)-2-((6-bromopyridin-2-yl)carbamoyl)-4-fluoropyrrolidin-1-yl)-2-oxoethyl)-1H-indazol-5-yl)pyrimidin-2-yl)acetic acid]", "values": [
      {"measurement": "IC50", "setting": "[1]", "value": "< 1000", "unit": "nM"}
    ]}
  ]
}
